Literature values, collected in PubChem BioAssay AID1259409 (Chemical Carcinogenesis Research Information System (CCRIS), 2018).

System: rodent chemically induced tumor inhibition, incidence and multiplicity
Assay: CCRIS tumor inhibitor studies
Conditions: Dose [Inhibitor]: 0

For O=c1oc2c(O)c(O)cc3c(=O)oc4c(O)c(O)cc1c4c23, the “tumour outcome (control, treated, inhibition, significance)” value (Carcinogen: AZOXYMETHANE, 25843-45-2, 4000 PPM IN DIET BEGINNING PRIOR TO CARCINOGEN DOSE AND CONTINUING FOR DURATION OF STUDY (STUDY DURATION: 54 WK), Route [Inhibitor]: ORAL, Species: RAT, Strain/Sex: F344/MALE, Target Tissue: Type of Lesion: SMALL INTESTINE: ADENOCARCINOMA, Dose [Carcinogen]: 15 MG/KG 1/WK FOR 2 WK, Promoter: NONE USED) is listed as 50%, 36%, 28%, not calculated, the “tumour outcome (control, treated, inhibition, significance)” value (Carcinogen: AZOXYMETHANE, 25843-45-2, 4000 PPM IN DIET BEGINNING PRIOR TO CARCINOGEN DOSE AND CONTINUING FOR DURATION OF STUDY (STUDY DURATION: 54 WK), Route [Inhibitor]: ORAL, Species: RAT, Strain/Sex: F344/MALE, Target Tissue: Type of Lesion: SMALL INTESTINE: ADENOMA, Dose [Carcinogen]: 15 MG/KG 1/WK FOR 2 WK, Promoter: NONE USED) is listed as 3%, 0%, 100%, not calculated and the “tumour outcome (control, treated, inhibition, significance)” value (Carcinogen: AZOXYMETHANE, 25843-45-2, 4000 PPM IN DIET FOR 56 WK BEGINNING 2 WK PRIOR TO CARCINOGEN TREATMENT (STUDY DURATION: 56 WK), Route [Inhibitor]: ORAL, Species: RAT, Strain/Sex: F344/MALE, Target Tissue: Type of Lesion: COLON (DISTAL): TUMOR, Dose [Carcinogen]: 15 MG/KG 1/WK FOR 2 WK, Promoter: NONE USED) is listed as 47%, 47%, 0%, not significant. The “tumour outcome (control, treated, inhibition, significance)” value (Carcinogen: AZOXYMETHANE, 25843-45-2, 4000 PPM IN DIET FOR 56 WK BEGINNING 2 WK PRIOR TO CARCINOGEN TREATMENT (STUDY DURATION: 56 WK), Route [Inhibitor]: ORAL, Species: RAT, Strain/Sex: F344/MALE, Target Tissue: Type of Lesion: COLON (PROXIMAL): TUMOR, Dose [Carcinogen]: 15 MG/KG 1/WK FOR 2 WK, Promoter: NONE) was 39%, 44%, -13%, not significant, the “tumour outcome (control, treated, inhibition, significance)” value (Carcinogen: AZOXYMETHANE, 25843-45-2, 8000 PPM IN DIET BEGINNING PRIOR TO CARCINOGEN DOSE AND CONTINUING FOR DURATION OF STUDY (STUDY DURATION: 54 WK), Route [Inhibitor]: ORAL, Species: RAT, Strain/Sex: F344/MALE, Target Tissue: Type of Lesion: COLON: ADENOCARCINOMA, Dose [Carcinogen]: 15 MG/KG 1/WK FOR 2 WK, Promoter: NONE USED) was 72%, 64%, 11%, not calculated and the “tumour outcome (control, treated, inhibition, significance)” value (Carcinogen: AZOXYMETHANE, 25843-45-2, 8000 PPM IN DIET BEGINNING PRIOR TO CARCINOGEN DOSE AND CONTINUING FOR DURATION OF STUDY (STUDY DURATION: 54 WK), Route [Inhibitor]: ORAL, Species: RAT, Strain/Sex: F344/MALE, Target Tissue: Type of Lesion: COLON: ADENOMA, Dose [Carcinogen]: 15 MG/KG 1/WK FOR 2 WK, Promoter: NONE USED) was 14%, 3%, 76%, not calculated. The “tumour outcome (control, treated, inhibition, significance)” value (Carcinogen: AZOXYMETHANE, 25843-45-2, 8000 PPM IN DIET BEGINNING PRIOR TO CARCINOGEN DOSE AND CONTINUING FOR DURATION OF STUDY (STUDY DURATION: 54 WK), Route [Inhibitor]: ORAL, Species: RAT, Strain/Sex: F344/MALE, Target Tissue: Type of Lesion: SMALL INTESTINE: ADENOCARCINOMA, Dose [Carcinogen]: 15 MG/KG 1/WK FOR 2 WK, Promoter: NONE USED) was 50%, 28%, 44%, not calculated, the “tumour outcome (control, treated, inhibition, significance)” value (Carcinogen: AZOXYMETHANE, 25843-45-2, 8000 PPM IN DIET BEGINNING PRIOR TO CARCINOGEN DOSE AND CONTINUING FOR DURATION OF STUDY (STUDY DURATION: 54 WK), Route [Inhibitor]: ORAL, Species: RAT, Strain/Sex: F344/MALE, Target Tissue: Type of Lesion: SMALL INTESTINE: ADENOMA, Dose [Carcinogen]: 15 MG/KG 1/WK FOR 2 WK, Promoter: NONE USED) was 3%, 0%, 100%, not calculated and the “tumour outcome (control, treated, inhibition, significance)” value (Carcinogen: AZOXYMETHANE, 25843-45-2, 8000 PPM IN DIET FOR 56 WK BEGINNING 2 WK PRIOR TO CARCINOGEN TREATMENT (STUDY DURATION: 56 WK), Route [Inhibitor]: ORAL, Species: RAT, Strain/Sex: F344/MALE, Target Tissue: Type of Lesion: COLON(DISTAL): TUMOR, Dose [Carcinogen]: 15 MG/KG 1/WK FOR 2 WK, Promoter: NONE USED) was 47%, 47%, 0%, not significant. The “tumour outcome (control, treated, inhibition, significance)” value (Carcinogen: AZOXYMETHANE, 25843-45-2, 8000 PPM IN DIET FOR 56 WK BEGINNING 2 WK PRIOR TO CARCINOGEN TREATMENT (STUDY DURATION: 56 WK), Route [Inhibitor]: ORAL, Species: RAT, Strain/Sex: F344/MALE, Target Tissue: Type of Lesion: COLON(PROXIMAL): TUMOR, Dose [Carcinogen]: 15 MG/KG 1/WK FOR 2 WK, Promoter: NONE USED) was 39%, 30%, 23%, not significant and the “tumour outcome (control, treated, inhibition, significance)” value (Carcinogen: BENZO[A]PYRENE, 50-32-8, 300 NMOL (TOTAL DOSE) APPLIED 10 MIN PRIOR TO CARCINOGEN DOSE INJECTED AS 1/7, 2/7, AND 4/7 OF THE TOTAL ON DAYS 1, 8, Route [Inhibitor]: INTRAPERITONEAL, Species: MOUSE, Strain/Sex: ICR/MALE, FEMALE, Target Tissue: Type of Lesion: LUNG: TUMOR, Dose [Carcinogen]: 450 NMOL (TOTAL DOSE) INJECTED IN DOSES OF 1/7, 2/7, AND 4/7 ON DAYS 1, 8, AND 15 OF LIFE, RESPECTIVELY, Promoter: NONE USED) was 74%, 75%, -1%, not significant.
